Several values for one entry are separate records, joined by “and”; a condition that tells them apart may be missing. Identical values can stand only once. Inconclusive results and toxic doses are left out. How the source made its calls: active means survival T/C of 150% or more; inactive means T/C below 125% in these data.
System: BDF1 mice, P388 leukemia ip, median survival T/C
Assay: NCI In Vivo Anticancer Drug Screen. Data for tumor model P388 Leukemia (intraperitoneal) in B6D2F1 (BDF1) mice
Settings: endpoint: median survival time, higher = longer survival
How it was run: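 In tumour-bearing mice, survival after compound treatment is set against the vehicle group and given as a quotient.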

[1] = dose: 50.0 mg/kg/injection, schedule: Q01DX009 (ip), vehicle: saline
[2] = dose: 100.0 mg/kg/injection, schedule: Q01DX009 (ip), vehicle: saline
[3] = dose: 200.0 mg/kg/injection, schedule: Q01DX009 (ip), vehicle: saline
[4] = dose: 25.0 mg/kg/injection, schedule: Q04DX003 (ip), vehicle: saline with Tween-80
[5] = dose: 100.0 mg/kg/injection, schedule: Q04DX003 (ip), vehicle: saline with Tween-80
[6] = dose: 200.0 mg/kg/injection, schedule: Q04DX003 (ip), vehicle: saline with Tween-80
[7] = dose: 400.0 mg/kg/injection, schedule: Q04DX003 (ip), vehicle: saline with Tween-80
[8] = dose: 100.0 mg/kg/injection, schedule: Q01DX009 (ip), vehicle: saline with Tween-80
[9] = dose: 200.0 mg/kg/injection, schedule: Q01DX009 (ip), vehicle: saline with Tween-80

Measured: T/C

C/C=C/C(=O)OC1CC(=O)N(C)c2cc(cc(OC)c2Cl)C/C(C)=C/C=CC(OC)C2(O)CC(OC(=O)N2)C(C)C2OC12C (stereo unspecified)
active: dose: 0.8 micrograms/kg/injection, schedule: Q01DX009 (ip), vehicle: saline + alcohol 150 % of control | dose: 1.5 micrograms/kg/injection, schedule: Q01DX009 (ip), vehicle: saline + alcohol 150 % of control | dose: 3.1 micrograms/kg/injection, schedule: Q01DX009 (ip), vehicle: saline + alcohol 150 % of control | dose: 6.2 micrograms/kg/injection, schedule: Q01DX009 (ip), vehicle: saline + alcohol 160 % of control | dose: 12.5 micrograms/kg/injection, schedule: Q01DX009 (ip), vehicle: saline + alcohol 170 % of control | dose: 25.0 micrograms/kg/injection, schedule: Q01DX009 (ip), vehicle: saline + alcohol 173 % of control | dose: 50.0 micrograms/kg/injection, schedule: Q01DX009 (ip), vehicle: saline + alcohol 210 % of control | dose: 100.0 micrograms/kg/injection, schedule: Q01DX009 (ip), vehicle: saline + alcohol 210 % of control | dose: 200.0 micrograms/kg/injection, schedule: Q01DX009 (ip), vehicle: saline + alcohol 210 % of control

CCCCCCOP(=O)(N1CC1C)N1CC1C (stereo unspecified)
active: [2] 150 % of control and 182 % of control
inactive: [1] 122 % of control | [3] 86 % of control

CC(=O)O[C@]1(C(C)=O)CC[C@H]2[C@@H]3C=C(Cl)C4=CC(=O)[C@@H]5C[C@@H]5[C@]4(C)[C@H]3CC[C@@]21C
inactive: dose: 100.0 mg/kg/injection, schedule: Q01DX009 (ip), vehicle: Klucel (hydroxypropylcellulose) (HPC) 95 % of control | dose: 100.0 mg/kg/injection, schedule: Q04DX003 (ip), vehicle: Klucel (hydroxypropylcellulose) (HPC) 104 % of control | dose: 200.0 mg/kg/injection, schedule: Q01DX009 (ip), vehicle: Klucel (hydroxypropylcellulose) (HPC) 91 % of control | dose: 200.0 mg/kg/injection, schedule: Q04DX003 (ip), vehicle: Klucel (hydroxypropylcellulose) (HPC) 108 % of control | dose: 400.0 mg/kg/injection, schedule: Q04DX003 (ip), vehicle: Klucel (hydroxypropylcellulose) (HPC) 108 % of control

Nc1ncnc2c1ncn2C1OC(CO)C(O)C1O.[Cl][Pt][Cl] (stereo unspecified)
inactive: dose: 100.0 mg/kg/injection, schedule: Q01DX009 (ip), vehicle: water 115 % of control | dose: 200.0 mg/kg/injection, schedule: Q01DX009 (ip), vehicle: water 102 % of control | dose: 400.0 mg/kg/injection, schedule: Q01DX009 (ip), vehicle: water 96 % of control

CSC1C(=O)Nc2cccc(C#N)c21 (stereo unspecified)
inactive: dose: 50.0 mg/kg/injection, schedule: Q04DX002 (ip), vehicle: saline with Tween-80 102 % of control | dose: 100.0 mg/kg/injection, schedule: Q04DX002 (ip), vehicle: saline with Tween-80 98 % of control | dose: 200.0 mg/kg/injection, schedule: Q04DX002 (ip), vehicle: saline with Tween-80 102 % of control

CN=C(N)c1ccc(N=C(N)c2ccc(N=C(N)c3ccc(NC(=O)Nc4cccc(NC(=O)Nc5ccc(C(N)=Nc6ccc(C(N)=Nc7ccc(C(N)=NC)cc7)cc6)cc5)c4)cc3)cc2)cc1
inactive: dose: 0.8 mg/kg/injection, schedule: Q01DX009 (ip), vehicle: saline with Tween-80 119 % of control | dose: 37.0 mg/kg/injection, schedule: Q01DX009 (ip), vehicle: saline with Tween-80 100 % of control
active: dose: 3.0 mg/kg/injection, schedule: Q01DX009 (ip), vehicle: saline with Tween-80 162 % of control | dose: 4.5 mg/kg/injection, schedule: Q04DX003 (ip), vehicle: saline with Tween-80 150 % of control | dose: 5.0 mg/kg/injection, schedule: Q01DX009 (ip), vehicle: saline with Tween-80 175 % of control and 195 % of control | dose: 7.0 mg/kg/injection, schedule: Q04DX003 (ip), vehicle: saline with Tween-80 150 % of control | dose: 8.0 mg/kg/injection, schedule: Q01DX009 (ip), vehicle: saline with Tween-80 212 % of control | dose: 11.0 mg/kg/injection, schedule: Q04DX003 (ip), vehicle: saline with Tween-80 154 % of control | dose: 12.0 mg/kg/injection, schedule: Q01DX009 (ip), vehicle: saline with Tween-80 168 % of control and 170 % of control | dose: 17.0 mg/kg/injection, schedule: Q04DX003 (ip), vehicle: saline with Tween-80 170 % of control and 179 % of control | dose: 18.0 mg/kg/injection, schedule: Q01DX009 (ip), vehicle: saline with Tween-80 240 % of control and 192 % of control | [4] 200 % of control | dose: 27.0 mg/kg/injection, schedule: Q01DX009 (ip), vehicle: saline with Tween-80 200 % of control | dose: 37.0 mg/kg/injection, schedule: Q04DX003 (ip), vehicle: saline with Tween-80 166 % of control and 191 % of control | dose: 37.5 mg/kg/injection, schedule: Q04DX003 (ip), vehicle: saline with Tween-80 181 % of control | dose: 55.0 mg/kg/injection, schedule: Q04DX003 (ip), vehicle: saline with Tween-80 158 % of control and 195 % of control

CNC(=O)c1ccc(NC(=O)Nc2cccc(C3=NCCN3)c2)cc1NC(=O)Nc1cccc(C2=NCCN2)c1
active: dose: 30.0 mg/kg/injection, schedule: Q01DX009 (ip), vehicle: saline with Tween-80 162 % of control

O=Cc1csc2ncccc12
inactive: [5] 91 % of control | [6] 100 % of control | [7] 95 % of control

COC(=O)c1cc(-c2ccccc2)[nH]c1-c1ccccc1
inactive: [1] 92 % of control

C[C@]12C=CC(=O)C=C1CC[C@@H]1[C@@H]2[C@@H](O)C[C@@]2(C)[C@H]1CC[C@]2(O)C(=O)COC(=O)CCC1CCCC1
inactive: dose: 25.0 mg/kg/injection, schedule: Q01DX009 (ip), vehicle: saline with Tween-80 113 % of control | dose: 50.0 mg/kg/injection, schedule: Q01DX009 (ip), vehicle: saline with Tween-80 109 % of control | [8] 95 % of control and 100 % of control

CCC(O)(CC(=O)O)c1ccccc1 (stereo unspecified)
inactive: [5] 95 % of control | [6] 90 % of control | [7] 90 % of control

CC(=O)c1ccccc1NC=O
inactive: [5] 100 % of control | [6] 104 % of control | [7] 108 % of control

CN=C1N[N+]2=C(C)CCCC2(C)S1 (stereo unspecified)
inactive: dose: 25.0 mg/kg/injection, schedule: Q01DX009 (ip), vehicle: saline 100 % of control | [1] 103 % of control | [2] 99 % of control

O/N=C/c1ccccc1O.O/N=C/c1ccccc1O.[Cu]
inactive: dose: 6.25 mg/kg/injection, schedule: Q04DX003 (ip), vehicle: saline with Tween-80 118 % of control | dose: 12.5 mg/kg/injection, schedule: Q04DX003 (ip), vehicle: saline with Tween-80 109 % of control | dose: 16.5 mg/kg/injection, schedule: Q04DX003 (ip), vehicle: saline with Tween-80 114 % of control | [4] 123 % of control

Cc1c(/C=C(\C#N)c2ccc([N+](=O)[O-])cc2)c(=O)n(-c2ccccc2)n1C
inactive: dose: 100.0 mg/kg/injection, schedule: Q04DX003 (ip), vehicle: gum acacia 103 % of control | dose: 200.0 mg/kg/injection, schedule: Q04DX003 (ip), vehicle: gum acacia 100 % of control | dose: 400.0 mg/kg/injection, schedule: Q04DX003 (ip), vehicle: gum acacia 100 % of control

CS(=O)(=O)C(F)(F)C(F)(F)C(F)(F)C(F)(F)F
inactive: [1] 101 % of control | [2] 101 % of control | [3] 106 % of control

O=S(=O)(O)N(O)c1ccccc1
inactive: dose: 25.0 mg/kg/injection, schedule: Q01DX001 (ip), vehicle: saline with Tween-80 105 % of control | dose: 50.0 mg/kg/injection, schedule: Q01DX001 (ip), vehicle: saline with Tween-80 102 % of control | dose: 100.0 mg/kg/injection, schedule: Q01DX001 (ip), vehicle: saline with Tween-80 100 % of control | dose: 200.0 mg/kg/injection, schedule: Q01DX001 (ip), vehicle: saline with Tween-80 99 % of control and 105 % of control | dose: 400.0 mg/kg/injection, schedule: Q01DX001 (ip), vehicle: saline with Tween-80 101 % of control

Nc1n[nH]c(N)n1.[Ni]
inactive: [8] 100 % of control | [5] 91 % of control | [9] 95 % of control and 115 % of control | [6] 87 % of control | dose: 400.0 mg/kg/injection, schedule: Q01DX009 (ip), vehicle: saline with Tween-80 109 % of control | [7] 100 % of control

CC(C)=C(CO)CCC(C)C
inactive: dose: 50.0 mg/kg/injection, schedule: Q04DX003 (ip), vehicle: saline with Tween-80 109 % of control | [5] 122 % of control | [6] 118 % of control

c1csc(CSc2ncnc3nc[nH]c23)c1
inactive: [8] 100 % of control | [9] 100 % of control

Cc1cc2[nH]c(=O)c(=O)[nH]c2cc1C
inactive: dose: 10.0 mg/kg/injection, schedule: Q01DX009 (ip), vehicle: Klucel (hydroxypropylcellulose) (HPC) 109 % of control | dose: 20.0 mg/kg/injection, schedule: Q01DX009 (ip), vehicle: Klucel (hydroxypropylcellulose) (HPC) 109 % of control | dose: 40.0 mg/kg/injection, schedule: Q01DX009 (ip), vehicle: Klucel (hydroxypropylcellulose) (HPC) 100 % of control | dose: 75.0 mg/kg/injection, schedule: Q01DX009 (ip), vehicle: Klucel (hydroxypropylcellulose) (HPC) 86 % of control
